Assay results reported in ChEMBL document CHEMBL5055661, “Cell-Based Drug Discovery: Identification and Optimization of Small Molecules that Reduce c-MYC Protein Levels in Cells” (J Med Chem, 2021).
Active and inactive are the calls of the source. No cut-off for these calls is given here.

Key:
[1] = AUC (0 to inf) in CD1 mouse at 5 mg/kg, po by LC-MS/MS analysis; format: ADME, organism-based; set-up: time infinity, dose 5 mg/kg, route po; conditions: in vivo
[2] = Volume of distribution at steady state in Han Wistar rat at 1 mg/kg, iv by LC-MS/MS analysis; format: ADME, organism-based; conditions: in vivo, read-out: Vdss
[3] = Cmax in Han Wistar rat at 2 mg/kg, po by LC-MS/MS analysis; format: ADME, organism-based; set-up: dose 2 mg/kg, route po; conditions: in vivo
[4] = Oral bioavailability in Han Wistar rat at 2 mg/kg by LC-MS/MS analysis; format: ADME, organism-based; conditions: in vivo
[5] = Plasma protein binding in Han Wistar rat at 2 mg/kg, po by LC-MS/MS analysis; format: ADME, organism-based; conditions: read-out: PPB (converted)
[6] = Clearance in Han Wistar rat at 1 mg/kg, iv by LC-MS/MS analysis; format: ADME, organism-based; conditions: in vivo
[7] = Oral bioavailability in CD1 mouse at 5 mg/kg by LC-MS/MS analysis; format: ADME, organism-based; conditions: in vivo
[8] = Half life in Han Wistar rat at 1 mg/kg, iv by LC-MS/MS analysis; format: ADME, organism-based; conditions: in vivo
[9] = Reduction in cMyc expression in human COLO 320HSR cells incubated for 24 hrs by HTRF assay; format: functional, cell-based
[10] = Cmax in CD1 mouse at 5 mg/kg, po by LC-MS/MS analysis; format: ADME, organism-based; set-up: dose 5 mg/kg, route po; conditions: in vivo
[11] = AUC (0 to inf) in Han Wistar rat at 2 mg/kg, po by LC-MS/MS analysis; format: ADME, organism-based; set-up: time infinity, dose 2 mg/kg, route po; conditions: in vivo
[12] = Plasma protein binding in CD1 mouse at 5 mg/kg, po by LC-MS/MS analysis; format: ADME, organism-based; conditions: read-out: PPB (converted)
[13] = Volume of distribution at steady state in Han Wistar rat at 1.9 mg/kg, iv by LC-MS/MS analysis; format: ADME, organism-based; conditions: in vivo, read-out: Vdss
[14] = Oral bioavailability in Han Wistar rat at 5.3 mg/kg by LC-MS/MS analysis; format: ADME, organism-based; conditions: in vivo
[15] = Distribution coefficient, logD of the compound by chromatography; format: physicochemical; conditions: octanol/water
[16] = Clearance in Han Wistar rat at 1.9 mg/kg, iv by LC-MS/MS analysis; format: ADME, organism-based; conditions: in vivo
[17] = Half life in Han Wistar rat at 1.9 mg/kg, iv by LC-MS/MS analysis; format: ADME, organism-based; conditions: in vivo
[18] = AUC (0 to t) in Han Wistar rat at 5.3 mg/kg, po by LC-MS/MS analysis; format: ADME, organism-based; set-up: dose 5.3 mg/kg, route po; conditions: in vivo
[19] = Half life in Han Wistar rat at 0.54 mg/kg, iv by LC-MS/MS analysis; format: ADME, organism-based; conditions: in vivo
[20] = Volume of distribution at steady state in Han Wistar rat at 0.54 mg/kg, iv by LC-MS/MS analysis; format: ADME, organism-based; conditions: in vivo, read-out: Vdss
[21] = Clearance in Han Wistar rat at 0.54 mg/kg, iv by LC-MS/MS analysis; format: ADME, organism-based; conditions: in vivo
[22] = Volume of distribution at steady state in CD1 mouse at 0.51 mg/kg, iv by LC-MS/MS analysis; format: ADME, organism-based; conditions: in vivo, read-out: Vdss
[23] = Clearance in CD1 mouse at 0.51 mg/kg, iv by LC-MS/MS analysis; format: ADME, organism-based; conditions: in vivo
[24] = Half life in CD1 mouse at 0.51 mg/kg, iv by LC-MS/MS analysis; format: ADME, organism-based; conditions: in vivo
DOHH-2 [25] = experiment: Anticancer activity against human DOHH-2 cells assessed as reduction in MYC mRNA expression in tumor at 30 mg/kg, po qd measured after 28 days by qRT-PCR analysis; format: functional, organism-based; conditions: time 28.0 day
[26] = Oral bioavailability in CD1 mouse at 5.1 mg/kg by LC-MS/MS analysis; format: ADME, organism-based; conditions: in vivo
[27] = Oral bioavailability in Han Wistar rat at 2.1 mg/kg by LC-MS/MS analysis; format: ADME, organism-based; conditions: in vivo
[28] = Half life in CD1 mouse at 0.49 mg/kg, iv by LC-MS/MS analysis; format: ADME, organism-based; conditions: in vivo
Mus musculus = experiment: Toxicity in mouse assessed as decrease in body weight at 30 mg/kg, po qd measured after 28 days; format: organism-based; conditions: in vivo, 672 h, time 28 day
[29] = Clearance in CD1 mouse at 0.49 mg/kg, iv by LC-MS/MS analysis; format: ADME, organism-based; conditions: in vivo
Burkitts lymphoma cell = experiment: Growth inhibition of MYC-translocated human Burkitts lymphoma cells measured after 6 days by CellTiterGlo-assay; format: functional; conditions: time 6.0 day
[30] = Plasma protein binding in CD1 mouse at 5.1 mg/kg, po by LC-MS/MS analysis; format: ADME, organism-based; conditions: read-out: PPB
DOHH-2 [31] = experiment: Anticancer activity against human DOHH-2 cells assessed as tumor growth inhibition at 45 mg/kg, po qd measured after 21 days; format: functional; conditions: DOHH-2, 504 h, time 21 day, read-out: TGI
DOHH-2 [32] = experiment: Anticancer activity against human DOHH-2 cells assessed as tumor growth inhibition at 30 mg/kg, po qd measured after 21 days; format: functional; conditions: DOHH-2, 504 h, time 21 day, read-out: TGI
DOHH-2 [33] = experiment: Reduction in MYC mRNA level in po dosed mouse xenografted with human DOHH-2 cells by qRT-PCR analysis; format: functional, organism-based; conditions: dose 15-100 mg/kg
[34] = AUC (0 to inf) in CD1 mouse at 5.1 mg/kg, po by LC-MS/MS analysis; format: ADME, organism-based; set-up: time infinity, dose 5.1 mg/kg, route po; conditions: in vivo
DOHH-2 [35] = experiment: Decrease in c-MYC protein level in human DOHH-2 cells incubated for 6 hrs by Western blot analysis; format: functional, cell-based
[36] = Clearance in CD1 mouse at 0.5 mg/kg, iv by LC-MS/MS analysis; format: ADME, organism-based; conditions: in vivo
[37] = Volume of distribution at steady state in CD1 mouse at 0.49 mg/kg, iv by LC-MS/MS analysis; format: ADME, organism-based; conditions: in vivo, read-out: Vdss
[38] = AUC (0 to inf) in Han Wistar rat at 2.1 mg/kg, po by LC-MS/MS analysis; format: ADME, organism-based; set-up: time infinity, dose 2.1 mg/kg, route po; conditions: in vivo
[39] = Half life in CD1 mouse at 0.5 mg/kg, iv by LC-MS/MS analysis; format: ADME, organism-based; conditions: in vivo
DOHH-2 [40] = experiment: Anticancer activity against human DOHH-2 cells assessed as tumor growth inhibition at 30 mg/kg, po qd measured after 28 days; format: functional; conditions: DOHH-2, 672 h, time 28 day, read-out: TGI
[41] = Permeability of the compound across artificial membrane by AMP assay; format: ADME; conditions: PAMPA; read-out: permeability
[42] = Volume of distribution at steady state in CD1 mouse at 0.5 mg/kg, iv by LC-MS/MS analysis; format: ADME, organism-based; conditions: in vivo, read-out: Vdss
[43] = Plasma protein binding in Han Wistar rat at 2.1 mg/kg, po by LC-MS/MS analysis; format: ADME, organism-based; conditions: read-out: PPB
[44] = Decrease in nascent MYC mRNA level in human COLO 320HSR cells at 2 uM incubated for 75 mins by qRT-PCR analysis; format: functional; conditions: 1.25 h
COLO-320-HSR [45] = experiment: Decrease in c-MYC protein level in human COLO 320HSR cells incubated for 24 hrs by Western blot analysis; format: functional, cell-based
COLO-320-HSR [46] = experiment: Decrease in MYC mRNA level in human COLO 320HSR cells incubated for 6 hrs by qRT-PCR analysis; format: functional, cell-based
COLO-320-HSR [47] = experiment: Effect on MCL-1 protein level in human COLO 320HSR cells incubated for 24 hrs by Western blot analysis; format: functional, cell-based

CNC(=O)c1cc(OC)c2c(nc(-c3ccc(N4[C@@H](C)CC[C@@H]4C)nc3)n2C[C@@H]2CN(C)CCO2)c1F
AUC(0-inf) [1]: 784 ng·h/mL
Vd [2]: 2.8 L/kg
Cmax [3]: 180 ng/mL
bioavailability [4]: 83%
fraction unbound [5]: 0.05
clearance [6]: 11 mL/min/kg
bioavailability [7]: 26%
half-life [8]: 4.3 h
EC50 [9]: 63.1 nM
Cmax [10]: 205 ng/mL
AUC(0-inf) [11]: 3160 ng·h/mL
fraction unbound [12]: 0.07

COc1cccc2nc(-c3ccc(N4[C@@H](C)CC[C@@H]4C)nc3)n(C[C@@H]3CNCCO3)c12
Vd [13]: 6.3 L/kg
bioavailability [14]: 63%
chromatographic logD [15]: 4
clearance [16]: 35 mL/min/kg
half-life [17]: 5.1 h
EC50 [9]: 126 nM
AUC(0-t) [18]: 1600 ng·h/mL

COc1cccc2nc(-c3ccc(N4[C@@H](C)CC[C@@H]4C)nc3)n(Cc3ccn(C)n3)c12
half-life [19]: 1 h
Vd [20]: 6 L/kg
clearance [21]: 190 mL/min/kg
EC50 [9]: 25.1 nM

COc1cc(C(N)=O)c(F)c2nc(-c3ccc(N4CCC[C@@H]4C)nc3)n(C[C@@H]3CN(C)CCO3)c12
AUC(0-inf) [1]: 1240 ng·h/mL
Vd [22]: 0.88 L/kg
Vd [2]: 2.5 L/kg
Cmax [3]: 500 ng/mL
clearance [23]: 24 mL/min/kg
bioavailability [4]: 100%
fraction unbound [5]: 0.04
clearance [6]: 14 mL/min/kg
half-life [24]: 0.55 h
bioavailability [7]: 43%
half-life [8]: 6.4 h
EC50 [9]: 63.1 nM
Cmax [10]: 380 ng/mL
AUC(0-inf) [11]: 4300 ng·h/mL
fraction unbound [12]: 0.03

CCNC(=O)c1cc(OC)c2c(c1)nc(-c1ccc(N3[C@@H](C)CC[C@@H]3C)nc1)n2C[C@@H]1CN(C)CCO1
Activity (DOHH-2 [25]): Active
bioavailability [26]: 35%
bioavailability [27]: 40%
half-life [28]: 0.75 h
Activity (Mus musculus): Non-Toxic
Vd [2]: 2.6 L/kg
clearance [29]: 25 mL/min/kg
growth inhibition (GI) (Burkitts lymphoma cell): Active
fraction unbound [30]: 0.01
inhibition in vivo at 45 mg/kg (DOHH-2 [31]): 89%
inhibition in vivo at 30 mg/kg (DOHH-2 [32]): 58%
Activity (DOHH-2 [33]): Active
AUC(0-inf) [34]: 1720 ng·h/mL
Activity (DOHH-2 [35]): Active
clearance [36]: 26 mL/min/kg
Vd [37]: 0.73 L/kg
AUC(0-inf) [38]: 669 ng·h/mL
clearance [6]: 22 mL/min/kg
half-life [39]: 1.9 h
inhibition in vivo at 30 mg/kg (DOHH-2 [40]): 82%
Papp [41]: 20.5 ×10⁻⁶ cm/s
Vd [42]: 3.4 L/kg
half-life [8]: 3.6 h
EC50 [9]: 79.4 nM
fraction unbound [43]: 0.09

CCN(CC)c1ccc(-c2nc3cc(C(=O)NC)ccc3n2Cc2ccn(CC)n2)cn1
inhibition at 2 µM [44]: 50%
Activity (COLO-320-HSR [45]): Dose-dependent effect
Activity (COLO-320-HSR [46]): Dose-dependent effect
EC50 [9]: 126 nM
Activity (COLO-320-HSR [47]): inactive
